# In patent US9186334B2 (Nuvo Research Inc., priority 2009, dated 2015):
# Settings: transdermal, 12 subjects
# Procedure: Specifically, a single site, open label study was conducted on 12 subjects, with 4-way cross-over. Four (4) patches were applied for 2, 4, or 12 hours.
smiles,measurement,value
CCN(CC)CC(=O)Nc1c(C)cccc1C [lidocaine],"rate of delivery, heated patch versus unheated patch",more rapidly
